The nature of the series: Removal of free drug during purification with acidified sugar solution: concentration in the permeate. The text has this: Without being bound by theory, it is surmised that encapsulation of therapeutic agents into liposomes results in some portion of the therapeutic agent becoming associated with or trapped within the lipid bilayer, particularly when encapsulating therapeutic agents with low water solubility or high hydrophobicity. Purifying the liposomal composition with an acidified aqueous solution may remove therapeutic agent that is associated with or trapped within the lipid bilayer, resulting in a liposome formulation that contains a therapeutic agent that is only encapsulated within the internal medium of the liposomes. […] As the washing volume increases—that is, as the liposomal composition is washed with an increasing amount of acidified aqueous sugar solution—the amount of Compound 9 detected in the permeate peaks, and then decreases. The peak is thought to result from a rapid release of Compound 9 that is associated with or trapped in the lipid bilayer into the acidified aqueous sugar solution. […] In other words, purifying the liposomal composition with an acidified aqueous solution may allow for any therapeutic agent merely associated with or trapped within the lipid bilayer to release into the acidified aqueous solution, thus preventing a rapid release from occurring in the bloodstream of a patient upon administration.
A formulation of liposomes containing Compound 9 was prepared and purified as described in Examples 1A, 1B, and 2. The liposome formulation comprised DSPC/Cholesterol/PEGylated (58/40/2 mol %) and used 250 mM AS as the loading aid.
During the purification of the formulation using tangential flow filtration, the concentration of Compound 9 in the permeate was measured, as shown below in Table 7. FIG. 3 depicts the concentration of Compound 9 in the permeate vs. the washing volume.

Consider `CCN(CC)C1CCN(CC[C@H](CSc2ccccc2)Nc2ccc(S(=O)(=O)NC(=O)c3ccc(N4CCN(CC5=C(c6ccc(Cl)cc6)CCC(C)(C)C5)CC4)cc3)cc2S(=O)(=O)C(F)(F)F)CC1` [Compound 9], for which, under “after washing with about 300-400 mL of acidified aqueous sugar solution (FIG. 3)”, the “Compound 9 detected in the permeate” value is given as “little”. The “Concentration of Compound x in the permeate” value stood at 7100 ng/mL (washing volume 1×); 15900 ng/mL (washing volume 3×); 3500 ng/mL (washing volume 6×); 1400 ng/mL (washing volume 9×); 1000 ng/mL (washing volume 12×).

For the origin of these results see patent US20240350411A1, “METHODS FOR PREPARING LIPOSOMAL FORMULATIONS” (Celator Pharmaceuticals, Inc., priority 2021, published 2024).
